This experiment deals with L. donovani-infected THP-1 macrophages, intracellular amastigote imaging. As to the kind of experiment: antileishmanial activity in infected THP-1 macrophages – imaging, THP-1 host macrophages, host toxicity (AID 1159564).
Setting [1] is: measured here: THP-1 host cell toxicity.
[2] abbreviates: measured here: amastigotes per macrophage.

Active and inactive are the calls of the source. The rule behind the calls is not given here.

For 54 molecules, IC50 results are on record in PubChem BioAssay AID1159564 (GlaxoSmithKline (GSK), 2015).

On to `Cc1nc(N2CCC(C(=O)N3CCC(O)(c4cccnc4)CC3)CC2)nc2ccc(C(C)C)cc12`, for which the IC50 is 50 µM. Under setting [1], this molecule came in with a half-maximal inhibitory concentration (IC50) of 25 µM. The molecule further showed an IC50 under setting [2] of 10 µM.
The corresponding values for `O=C(Nc1ccc(C(F)(F)F)cc1)NC1(C(=O)NCc2ccco2)CCCCC1` are > 50 µM (inactive), 32 µM and greater than 50 µM.
The corresponding values for `Nc1nccc(-c2csc(Nc3ccc(Cl)cc3)n2)n1` are 1 µM, greater than 50 µM and 1 µM.
The matching figures for `COc1ccc2nc(N(Cc3cccnc3)C(=O)C3CCC3)sc2c1`: > 50 µM (inactive), greater than 50 µM and 50 µM.
As to `CCc1nn(-c2ncc(F)c(NC(C)C)n2)c(N)c1C1CCCCC1`, the 50% inhibitory concentration (IC50) is 3.2 µM. Moreover, the half-maximal inhibitory concentration (IC50) under setting [1] turned out to be 16 µM. Under setting [2], this molecule registered an IC50 of 1.6 µM.
The matching figures for `Cc1ccc(Nc2nc(C3CCCN3Cc3ccn[nH]3)cs2)nc1` (configuration not stated): 1.6 µM, 25 µM and 1.3 µM.
The corresponding values for `O=C(c1ccc(O)c(Cl)c1)N1CCN(c2cnccn2)CC1` are 5 µM, greater than 50 µM and 3.2 µM.
With `CS(=O)(=O)NC1CCC(Nc2ncc(Br)c(Nc3ccccc3C(N)=O)n2)CC1` (configuration not stated), the IC50 is 2 µM. The same molecule returned a half-inhibitory concentration (IC50) under setting [1] of 0.5 µM. Besides, under setting [2], the IC50 was found to be 0.79 µM.
The matching figures for `Cc1c(C(=O)NCCCCn2ccnc2)oc2c(C)cccc12`: > 50 µM (inactive), greater than 50 µM and greater than 50 µM.
The matching figures for `O=C(CN(Cc1ccccn1)Cc1ccccn1)NCc1ccc(-c2csnn2)cc1`: 5 µM, greater than 79 µM and 5 µM.
The corresponding values for `O=C(COc1nn(-c2ccccc2)c2ncccc12)NCc1ccccc1` are 0.32 µM, greater than 50 µM and 0.079 µM.
On to `Cc1ccc(-c2csc(NC(=O)C=Cc3ccc(S(=O)(=O)N4CCOCC4)cc3)n2)o1`, for which the concentration for half-maximal inhibition (IC50) was 5 µM. Besides, the half-inhibitory concentration (IC50) under setting [1] is greater than 50 µM. For the same molecule, the half-maximal inhibitory concentration (IC50) under setting [2] was 0.79 µM.
In the case of `N#Cc1cccc(Cc2cc(Nc3cc(C4CC4)[nH]n3)nc(N3CC[C@H]3C(N)=O)n2)c1`, the half-inhibitory concentration (IC50) was 0.2 µM. Further, the IC50 under setting [1] turned out to be 0.032 µM. Under setting [2], this molecule gave a concentration for half-maximal inhibition (IC50) of 0.079 µM.
The matching figures for `CCc1cc(C(=O)Nc2nccn2-c2ccccc2)cs1`: 13 µM, 32 µM and 5 µM.
The matching figures for `COc1ccc(-c2nc3ccncc3c(=O)n2CCOc2ccccc2)cc1`: > 50 µM (inactive), greater than 50 µM and greater than 50 µM.
On to `O=C(Nc1ccc(-c2nc3ccccc3c(=O)[nH]2)cc1)c1cccs1`, for which the IC50 is > 50 µM (inactive). Besides, the IC50 under setting [1] was greater than 50 µM. Under setting [2], this molecule returned a concentration for half-maximal inhibition (IC50) greater than 50 µM.
Regarding `COc1ccc2nccc([C@H](O)CN3CC[C@H](NC(=O)c4ccc(Br)cc4)[C@@H](O)C3)c2n1`, the IC50 was > 50 µM (inactive). Under setting [1], this molecule yielded an IC50 greater than 50 µM. The IC50 under setting [2] was greater than 50 µM.
As for `COc1ccc(CN2C(=O)C(O)(CC(=O)c3ccncc3)c3cc(Br)ccc32)cc1OC` (configuration not stated), the concentration for half-maximal inhibition (IC50) was 25 µM. Under setting [1], this molecule gave an IC50 of 40 µM. This molecule showed a half-inhibitory concentration (IC50) under setting [2] of 20 µM.
Regarding `CC(C(=O)Nc1ccc(Br)cc1)N1CCN(c2ccc([N+](=O)[O-])cc2)CC1` (configuration not stated), the IC50 is > 50 µM (inactive). Moreover, under setting [1], the half-inhibitory concentration (IC50) was greater than 50 µM. The same molecule yielded a 50% inhibitory concentration (IC50) under setting [2] greater than 50 µM.
With `Cc1cc2nc(N3CC[C@H]3C(N)=O)nc(Nc3cc(C4CC4)[nH]n3)c2s1`, the IC50 was 2 µM. In addition, the IC50 under setting [1] was 0.79 µM. In addition, under setting [2], the half-inhibitory concentration (IC50) stood at 1.3 µM.
Take `Cc1ccc(C)c(OC2CCN(C(=O)C(C)n3ccnc3)CC2)c1` (configuration not stated): the IC50 was > 50 µM (inactive). The molecule also registered a 50% inhibitory concentration (IC50) under setting [1] greater than 50 µM. The molecule also registered an IC50 under setting [2] of 0.32 µM.
The corresponding values for `Cc1ccc(CNC2CCN(C[C@@H]3Cn4c(=O)ccc5ccc(=O)n3c54)CC2)cc1F` are > 50 µM (inactive), greater than 50 µM and greater than 50 µM.
The matching figures for `CCN(CC)c1ccc(S(=O)(=O)N(CC)CC)c2nonc12`: 0.4 µM, 16 µM and 0.13 µM.
Consider `COCc1cc(Nc2cccc(Cl)c2)nc(-c2ccccn2)n1`, for which the half-maximal inhibitory concentration (IC50) was 1.6 µM. This molecule had a 50% inhibitory concentration (IC50) under setting [1] greater than 50 µM. Moreover, under setting [2], the IC50 came to 0.63 µM.
The matching figures for `O=c1ccc2ccc(F)c3c2n1C[C@H]3CN1CCN(CC(O)c2cc3c(cn2)OCS3)CC1` (some centres not stated): > 50 µM (inactive), greater than 50 µM and greater than 50 µM.
The matching figures for `COc1cnc2ccc(=O)n(CCN3CCC(NC(=O)c4ccc(Cl)cc4)CC3)c2c1`: > 50 µM (inactive), greater than 50 µM and 4 µM.
Take `Nc1nc(-c2ccccn2)nc(N)c1Cc1c(F)cccc1Cl`: the 50% inhibitory concentration (IC50) was 1.3 µM. This molecule also displayed an IC50 under setting [1] of 32 µM. Besides, the IC50 under setting [2] worked out at 1 µM.
The matching figures for `N#Cc1cccc(CN2CCC(N(Cc3cccnc3)C(=O)c3cc(F)c(F)cc3F)CC2)c1`: > 50 µM (inactive), greater than 50 µM and 13 µM.
Consider `Nc1cc(-c2ccc3ncnc(N4CCOCC4)c3c2)cnc1N`, for which the 50% inhibitory concentration (IC50) was 10 µM. The IC50 under setting [1] was greater than 50 µM. Besides, under setting [2], the IC50 was 1.3 µM.
The corresponding values for `Cc1cc(-c2cccc3ccccc23)nc2nc(N)nc(N)c12` are 5 µM, 50 µM and 1 µM.
For the molecule `CC(C)CC(=O)Nc1cc(C2CC2)nn1-c1nc2c(c(=O)[nH]1)CCCC2`, the IC50 was 7.9 µM. The molecule further had a half-maximal inhibitory concentration (IC50) under setting [1] of 5 µM. The molecule further yielded an IC50 under setting [2] of 5 µM.
As for `O=C1CN(C2CCCc3c(OCc4ccncc4)cccc32)C(=O)N1C1CCCCC1` (configuration not stated), the IC50 was > 50 µM (inactive). The same molecule had an IC50 under setting [1] greater than 50 µM. The molecule further returned an IC50 under setting [2] greater than 50 µM.
`Cn1ccnc1CN1CCc2[nH]cnc2C1c1ccccc1OCc1ccccc1` (configuration not stated): the IC50 was > 50 µM (inactive). Further, the 50% inhibitory concentration (IC50) under setting [1] was greater than 50 µM. In addition, under setting [2], the IC50 was greater than 50 µM.
Turning to `CCn1c(NC(=O)Cc2ccc(F)cc2)nc2ccccc21`, the IC50 is 10 µM. Besides, the IC50 under setting [1] was greater than 50 µM. Under setting [2], this molecule yielded a half-maximal inhibitory concentration (IC50) of 6.3 µM.
With `O=C(NCc1ccncc1)c1ccccc1N1CCCN(C(=O)Cc2ccc(F)c(F)c2)CC1`, the IC50 was > 50 µM (inactive). Under setting [1], this molecule registered a 50% inhibitory concentration (IC50) greater than 50 µM. This molecule also displayed a 50% inhibitory concentration (IC50) under setting [2] greater than 50 µM.
`CCOc1ccc(NC(=O)c2ccc(NC(=O)NC3CCCCC3)cc2)cc1`: the IC50 is 7.9 µM. Also, under setting [1], the half-inhibitory concentration (IC50) was determined as 4 µM. Besides, the 50% inhibitory concentration (IC50) under setting [2] was found to be 6.3 µM.
The corresponding values for `O=C(NC1CCN(C2Cc3ccc(NS(=O)(=O)c4cc(F)cc(F)c4)cc3C2)CC1)C1CC1` (configuration not stated) are > 50 µM (inactive), 13 µM and 13 µM.
The matching figures for `CCC(CC)C(=O)Nc1ccc(-c2nnc(-c3ccc(OC)cc3)o2)cc1`: > 50 µM (inactive), greater than 50 µM and greater than 50 µM.
Turning to `C=CCN(Cc1cccs1)C(=O)CSc1nnc(-c2ccc3c(c2)OCO3)o1`, the 50% inhibitory concentration (IC50) is 3.2 µM. In addition, the half-inhibitory concentration (IC50) under setting [1] is greater than 50 µM. Also, the IC50 under setting [2] was 1.3 µM.
In the case of `Cn1nc([N+](=O)[O-])nc1N1CCCCC1`, the IC50 was > 50 µM (inactive). Under setting [1], this molecule came in with an IC50 greater than 50 µM. Further, the IC50 under setting [2] was greater than 50 µM.
As to `O=C(Nc1ccc(C(=O)N2CCCC2c2ccc3c(c2)OCCCO3)cc1)c1ccco1` (configuration not stated), the IC50 is 6.3 µM. The IC50 under setting [1] was greater than 50 µM. Under setting [2], this molecule gave a 50% inhibitory concentration (IC50) of 3.2 µM.
Turning to `Cc1cccc(Nc2nc(-c3ccccn3)cs2)n1`, the IC50 was 3.2 µM. The molecule also gave an IC50 under setting [1] greater than 50 µM. In addition, the 50% inhibitory concentration (IC50) under setting [2] came to 2 µM.
The matching figures for `CCNc1cc(-c2ccccn2)nc(Nc2ccc(OC)cc2)n1`: 0.5 µM, 25 µM and 0.4 µM.
As for `O=C(Nc1nc(-c2ccc(F)cc2)cs1)c1ccc([N+](=O)[O-])s1`, the IC50 was 1.3 µM. In addition, the half-maximal inhibitory concentration (IC50) under setting [1] amounted to 7.9 µM. Under setting [2], this molecule gave a half-maximal inhibitory concentration (IC50) of 1 µM.
The corresponding values for `O=C(CN(c1cccc(C(F)(F)F)c1)S(=O)(=O)c1ccc(Cl)cc1)NCc1ccc(F)c(F)c1` are > 50 µM (inactive), 20 µM and greater than 50 µM.
Consider `COc1cccc(NS(=O)(=O)c2ccc3[nH]cc(C(=O)NCCC(C)C)c(=O)c3c2)c1`, for which the IC50 is > 50 µM (inactive). This molecule also had a 50% inhibitory concentration (IC50) under setting [1] greater than 50 µM. The molecule further registered an IC50 under setting [2] greater than 50 µM.
As for `COc1cc(OC)cc(C(NS(=O)(=O)c2ccc(Cl)c(C(F)(F)F)c2)c2nccn2C)c1` (configuration not stated), the 50% inhibitory concentration (IC50) was 6.3 µM. The IC50 under setting [1] was greater than 50 µM. Moreover, the concentration for half-maximal inhibition (IC50) under setting [2] was 5 µM.
`Clc1ccc(OCCN2CCCCC2c2cccnc2)c(Cl)c1` (configuration not stated): the IC50 was > 50 µM (inactive). Moreover, under setting [1], the 50% inhibitory concentration (IC50) was greater than 50 µM. This molecule also displayed an IC50 under setting [2] of 5 µM.
The corresponding values for `CCOc1ccccc1C(=O)Nc1nnc(-c2ccc3c(c2)OCO3)s1` are 0.5 µM, greater than 50 µM and 0.32 µM.
The matching figures for `CNc1cncc(C2CCCN2C(=O)Cc2ccc3ccccc3c2)n1` (configuration not stated): > 50 µM (inactive), greater than 50 µM and greater than 50 µM.
The corresponding values for `Cc1cc2cc(CNc3ccc4c(c3)OCO4)c(=O)n(CCO)c2cc1C` are 0.5 µM, 40 µM and 0.25 µM.
For the molecule `O=C(Nc1ccccc1C(=O)Nc1ccccn1)c1ccco1`, the IC50 is > 50 µM (inactive). The concentration for half-maximal inhibition (IC50) under setting [1] was greater than 50 µM. Also, under setting [2], the IC50 is greater than 50 µM.
Consider `COc1ccccc1C1CC(c2ccc(NS(C)(=O)=O)cc2)=NN1C(=O)c1cccs1` (configuration not stated), for which the IC50 is 4 µM. The half-maximal inhibitory concentration (IC50) under setting [1] is greater than 50 µM. The molecule also showed an IC50 under setting [2] of 2.5 µM.
The matching figures for `Cc1nn(-c2nc(N)nc(-c3ccccn3)n2)c(C)c1Cc1ccccc1`: 3.2 µM, greater than 50 µM and 2.5 µM.

The IC50 is the point on the concentration scale where inhibition reaches its midpoint.
